Measured values reported in ChEMBL document CHEMBL4330059, “Discovery of N1-(4-((7-(3-(4-ethylpiperazin-1-yl)propoxy)-6-methoxyquinolin-4-yl)oxy)-3,5-difluorophenyl)-N3-(2-(2,6-difluorophenyl)-4-oxothiazolidin-3-yl)urea as a multi-tyrosine kinase inhibitor for drug-sensitive and drug-resistant cancers treatment” (Eur J Med Chem, 2019).
Calls of active or inactive are those of the source. The rule behind the calls is not given here.

Legend:
[1] = target: Proto-oncogene tyrosine-protein kinase Src (Homo sapiens, UniProt P12931); test: Inhibition of c-Src (unknown origin) using FAM-labelled peptide and ATP incubated for 10 mins by mobility shift assay
[2] = target: Insulin-like growth factor 1 receptor (Homo sapiens, UniProt P08069); test: Inhibition of IGF-1R (unknown origin) using FAM-labelled peptide and ATP incubated for 10 mins by mobility shift assay
MDA-MB-231 = test: Antiproliferative activity against human MDA-MB-231 cells after 72 hrs by MTT assay; format: functional, cell-based; conditions: MDA-MB-231, 72 h
HT-29 [3] = test: Antiproliferative activity against human HT-29 cells after 72 hrs by IncuCyte live-cell imaging assay; format: functional, cell-based
HT-29 [4] = test: Induction of apoptosis in human HT-29 cells assessed as early apoptotic cells at 0.1 ug/mL after 72 hrs by Annexin V-FITC/propidium iodide staining-based flow cytometric analysis (reference value: 0%); format: functional
HT-29 [5] = test: Induction of apoptosis in human HT-29 cells after 72 hrs by Annexin V-FITC/propidium iodide staining-based flow cytometric analysis; format: functional, cell-based
[6] = target: T1, Tyrosine-protein kinase receptor UFO (Homo sapiens, UniProt P30530); test: Inhibition of AXL (unknown origin) using FAM-labelled peptide and ATP incubated for 10 mins by mobility shift assay
T1 sequence (P30530 whole entry): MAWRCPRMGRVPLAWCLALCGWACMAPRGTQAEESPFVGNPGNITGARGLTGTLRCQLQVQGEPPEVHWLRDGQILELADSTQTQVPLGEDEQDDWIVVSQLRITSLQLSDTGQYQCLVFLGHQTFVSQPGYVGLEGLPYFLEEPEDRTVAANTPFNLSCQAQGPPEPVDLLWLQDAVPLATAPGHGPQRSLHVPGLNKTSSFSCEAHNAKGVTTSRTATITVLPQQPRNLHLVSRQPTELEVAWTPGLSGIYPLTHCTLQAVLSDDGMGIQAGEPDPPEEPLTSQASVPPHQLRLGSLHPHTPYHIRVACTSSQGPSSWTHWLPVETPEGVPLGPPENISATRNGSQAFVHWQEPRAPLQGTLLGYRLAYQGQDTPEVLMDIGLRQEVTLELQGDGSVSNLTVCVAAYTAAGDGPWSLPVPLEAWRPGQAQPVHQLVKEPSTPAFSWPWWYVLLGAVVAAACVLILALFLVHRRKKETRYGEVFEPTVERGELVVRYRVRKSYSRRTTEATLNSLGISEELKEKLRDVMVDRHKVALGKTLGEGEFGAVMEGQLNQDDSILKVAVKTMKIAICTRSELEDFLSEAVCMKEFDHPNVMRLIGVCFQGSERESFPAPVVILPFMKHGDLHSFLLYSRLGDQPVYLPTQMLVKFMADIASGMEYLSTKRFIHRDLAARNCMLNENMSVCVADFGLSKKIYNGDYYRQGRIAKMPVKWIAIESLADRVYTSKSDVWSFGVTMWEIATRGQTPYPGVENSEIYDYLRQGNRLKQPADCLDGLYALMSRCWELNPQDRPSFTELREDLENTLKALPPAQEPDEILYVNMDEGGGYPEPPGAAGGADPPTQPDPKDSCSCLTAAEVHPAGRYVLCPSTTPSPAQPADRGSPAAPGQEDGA

HT-29 [7] = test: Induction of apoptosis in human HT-29 cells assessed as late apoptotic cells at 1 ug/mL after 72 hrs by Annexin V-FITC/propidium iodide staining-based flow cytometric analysis (reference value: 0.1%); format: functional
[8] = target: ALK tyrosine kinase receptor (Homo sapiens, UniProt Q9UM73); test: Inhibition of ALK (unknown origin) using FAM-labelled peptide and ATP incubated for 10 mins by mobility shift assay
HT-29 [9] = test: Induction of apoptosis in human HT-29 cells assessed as late apoptotic cells at 0.1 ug/mL after 72 hrs by Annexin V-FITC/propidium iodide staining-based flow cytometric analysis (reference value: 0.1%); format: functional
A549/CDDP = test: Antiproliferative activity against human A549/CDDP cells after 72 hrs by MTT assay; format: functional, cell-based
[10] = Antiproliferative activity against human MCF7/DX cells after 72 hrs by MTT assay; format: functional, cell-based
HT-29 [11] = test: Antimigratory activity against human HT-29 cells at 3.33 ug/mL after 48 to 72 hrs by wound healing assay; format: functional, cell-based
[12] = target: Epidermal growth factor receptor (Homo sapiens, UniProt P00533); test: Inhibition of EGFR (unknown origin) using FAM-labelled peptide and ATP incubated for 10 mins by mobility shift assay
[13] = target: Mast/stem cell growth factor receptor Kit (Homo sapiens, UniProt P10721); test: Inhibition of c-Kit (unknown origin) using FAM-labelled peptide and ATP incubated for 10 mins by mobility shift assay
HT-29 [14] = test: Induction of apoptosis in human HT-29 cells assessed as early apoptotic cells at 1 ug/mL after 72 hrs by Annexin V-FITC/propidium iodide staining-based flow cytometric analysis (reference value: 0%); format: functional
[15] = target: T2, Hepatocyte growth factor receptor (Homo sapiens, UniProt P08581); test: Inhibition of c-Met in human HT-29 cells assessed as decrease in ERK1/2 phosphorylation at 3 ug/mL after 72 hrs by Western blot analysis; format: cell-based
HT-29 [16] = test: Cytotoxicity against human HT-29 cells assessed as increase in dead cells at 3.33 ug/mL up to 72 hrs by yoyo-1 dye-based fluorescence assay; format: functional, cell-based
HT-29 [17] = test: Induction of apoptosis in human HT-29 cells assessed as late apoptotic cells at 3 ug/mL after 72 hrs by Annexin V-FITC/propidium iodide staining-based flow cytometric analysis (reference value: 0.1%); format: functional
MCF7 = test: Antiproliferative activity against human MCF7 cells after 72 hrs by MTT assay; format: functional, cell-based; conditions: MCF7, 72 h
HT-29 [18] = test: Antimigratory activity against human HT-29 cells at <3.33 ug/mL after 48 to 72 hrs by wound healing assay; format: functional, cell-based
[19] = target: T2, Hepatocyte growth factor receptor; test: Inhibition of c-Met (unknown origin) using FAM-labelled peptide and ATP incubated for 10 mins by mobility shift assay
HT-29 [20] = test: Antiproliferative activity against human HT-29 cells after 72 hrs by MTT assay; format: functional, cell-based; conditions: HT-29, 72 h
HT-29 [21] = test: Cytotoxicity against human HT-29 cells assessed as increase in dead cells after 72 hrs by yoyo-1 dye-based fluorescence assay; format: functional, cell-based
HT-29 [22] = test: Induction of apoptosis in human HT-29 cells assessed as early apoptotic cells at 0.3 ug/mL after 72 hrs by Annexin V-FITC/propidium iodide staining-based flow cytometric analysis (reference value: 0%); format: functional
[23] = target: Macrophage-stimulating protein receptor (Homo sapiens, UniProt Q04912); test: Inhibition of Ron (unknown origin) using FAM-labelled peptide and ATP incubated for 10 mins by mobility shift assay
HT-29 [24] = test: Induction of apoptosis in human HT-29 cells assessed as early apoptotic cells at 3 ug/mL after 72 hrs by Annexin V-FITC/propidium iodide staining-based flow cytometric analysis (reference value: 0%); format: functional
A549 = test: Antiproliferative activity against human A549 cells after 72 hrs by MTT assay; format: functional, cell-based; conditions: A549, 72 h
HT-29 [25] = test: Antiproliferative activity against human HT-29 cells assessed as cell confluence level at 0.37 ug/ml after 0 to 12 hrs by IncuCyte live-cell imaging assay (reference value: 87.5%); format: functional
FHC = test: Cytotoxicity against human FHC cells after 72 hrs by MTT assay; format: cell-based
[26] = target: T2, Hepatocyte growth factor receptor; test: Inhibition of c-Met phosphorylation in human HT-29 cells at 3 ug/mL after 72 hrs by Western blot analysis; format: cell-based
HT-29 [27] = test: Cytotoxicity against human HT-29 cells assessed as increase in dead cells at 0.01 ug/mL after 72 hrs by yoyo-1 dye-based fluorescence assay; format: functional, cell-based
HT-29 [28] = test: Antiproliferative activity against human HT-29 cells assessed as cell confluence level at 10 ug/ml after 72 hrs by IncuCyte live-cell imaging assay (reference value: 87.5%); format: functional
[29] = target: Receptor tyrosine-protein kinase erbB-2 (Homo sapiens, UniProt P04626); test: Inhibition of HER-2 (unknown origin) using FAM-labelled peptide and ATP incubated for 10 mins by mobility shift assay
[30] = Selectivity index, ratio of IC50 for human FHC cells to IC50 for human HT-29 cells; format: toxicity; conditions: FHC cells and HT-29 cells, read-out: Ratio IC50
[31] = target: T2, Hepatocyte growth factor receptor; test: Inhibition of c-Met in human HT-29 cells assessed as decrease in Akt phosphorylation at 3 ug/mL after 72 hrs by Western blot analysis; format: cell-based
HT-29 [32] = test: Induction of apoptosis in human HT-29 cells assessed as late apoptotic cells at 0.3 ug/mL after 72 hrs by Annexin V-FITC/propidium iodide staining-based flow cytometric analysis (reference value: 0.1%); format: functional
[33] = target: Vascular endothelial growth factor receptor 2 (Homo sapiens, UniProt P35968); test: Inhibition of KDR (unknown origin) using FAM-labelled peptide and ATP incubated for 10 mins by mobility shift assay

T2 sequence (P08581 whole entry): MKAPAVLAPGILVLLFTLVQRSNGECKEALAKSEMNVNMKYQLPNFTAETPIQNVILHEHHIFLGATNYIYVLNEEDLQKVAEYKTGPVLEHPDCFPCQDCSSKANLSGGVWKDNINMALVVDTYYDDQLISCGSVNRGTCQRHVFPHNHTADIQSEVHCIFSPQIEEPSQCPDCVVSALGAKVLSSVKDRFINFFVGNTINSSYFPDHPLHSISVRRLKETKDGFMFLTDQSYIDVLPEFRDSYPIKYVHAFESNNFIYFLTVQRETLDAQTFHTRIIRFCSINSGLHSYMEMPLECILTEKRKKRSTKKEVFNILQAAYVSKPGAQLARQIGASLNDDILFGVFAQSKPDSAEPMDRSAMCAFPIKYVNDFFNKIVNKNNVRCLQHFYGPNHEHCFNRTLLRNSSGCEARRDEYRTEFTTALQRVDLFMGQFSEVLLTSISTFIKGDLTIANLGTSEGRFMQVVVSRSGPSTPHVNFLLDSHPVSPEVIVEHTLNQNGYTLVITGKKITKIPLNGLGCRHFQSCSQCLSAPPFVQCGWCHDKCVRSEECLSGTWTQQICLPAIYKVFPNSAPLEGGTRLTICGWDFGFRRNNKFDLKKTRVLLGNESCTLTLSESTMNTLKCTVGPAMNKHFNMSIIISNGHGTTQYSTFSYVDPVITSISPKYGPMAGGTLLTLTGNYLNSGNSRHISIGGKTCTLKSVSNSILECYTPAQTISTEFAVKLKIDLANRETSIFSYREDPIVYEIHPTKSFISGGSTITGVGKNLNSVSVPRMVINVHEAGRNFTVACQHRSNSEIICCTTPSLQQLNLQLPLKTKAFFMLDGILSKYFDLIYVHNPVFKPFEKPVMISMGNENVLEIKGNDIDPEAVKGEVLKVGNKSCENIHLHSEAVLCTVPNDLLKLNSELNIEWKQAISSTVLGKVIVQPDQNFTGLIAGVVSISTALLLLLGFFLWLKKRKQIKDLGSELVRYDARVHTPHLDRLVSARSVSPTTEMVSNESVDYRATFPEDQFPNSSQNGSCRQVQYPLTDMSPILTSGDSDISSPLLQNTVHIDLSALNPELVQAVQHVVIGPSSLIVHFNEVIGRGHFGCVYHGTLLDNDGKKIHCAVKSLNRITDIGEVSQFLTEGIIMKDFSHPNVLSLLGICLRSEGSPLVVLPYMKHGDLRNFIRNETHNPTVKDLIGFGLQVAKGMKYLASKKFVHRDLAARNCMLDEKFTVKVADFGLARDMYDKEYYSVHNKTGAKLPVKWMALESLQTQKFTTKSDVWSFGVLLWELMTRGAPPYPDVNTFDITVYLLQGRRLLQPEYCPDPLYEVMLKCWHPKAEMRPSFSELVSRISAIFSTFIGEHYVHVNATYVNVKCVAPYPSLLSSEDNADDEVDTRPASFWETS
Chain of Mast/stem cell growth factor receptor Kit (P10721 whole entry): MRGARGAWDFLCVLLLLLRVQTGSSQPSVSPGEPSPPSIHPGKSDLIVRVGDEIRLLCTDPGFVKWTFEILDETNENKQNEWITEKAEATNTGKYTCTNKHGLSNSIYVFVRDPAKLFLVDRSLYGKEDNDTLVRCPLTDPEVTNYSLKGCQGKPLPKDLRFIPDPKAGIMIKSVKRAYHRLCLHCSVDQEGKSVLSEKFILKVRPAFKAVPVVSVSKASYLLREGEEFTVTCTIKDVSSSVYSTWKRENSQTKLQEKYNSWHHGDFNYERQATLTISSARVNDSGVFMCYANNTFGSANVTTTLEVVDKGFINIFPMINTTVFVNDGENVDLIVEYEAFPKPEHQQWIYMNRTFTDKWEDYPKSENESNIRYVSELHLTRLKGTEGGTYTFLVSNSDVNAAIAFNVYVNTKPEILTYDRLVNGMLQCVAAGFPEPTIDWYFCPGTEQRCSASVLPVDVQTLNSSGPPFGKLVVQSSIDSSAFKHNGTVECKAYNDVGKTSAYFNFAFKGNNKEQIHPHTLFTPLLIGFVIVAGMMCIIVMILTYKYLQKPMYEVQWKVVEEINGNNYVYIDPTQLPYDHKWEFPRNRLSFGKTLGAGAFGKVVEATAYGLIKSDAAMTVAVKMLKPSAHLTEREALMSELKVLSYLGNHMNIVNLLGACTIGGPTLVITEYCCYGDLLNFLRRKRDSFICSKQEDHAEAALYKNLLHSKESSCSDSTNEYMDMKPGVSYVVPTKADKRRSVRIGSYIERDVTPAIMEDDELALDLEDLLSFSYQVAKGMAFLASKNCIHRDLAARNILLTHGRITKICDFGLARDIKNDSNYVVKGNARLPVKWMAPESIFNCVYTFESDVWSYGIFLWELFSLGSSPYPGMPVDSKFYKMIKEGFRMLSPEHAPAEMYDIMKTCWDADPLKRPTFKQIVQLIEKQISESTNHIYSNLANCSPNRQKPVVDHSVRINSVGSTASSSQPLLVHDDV
Chain of Proto-oncogene tyrosine-protein kinase Src (P12931 2-536 limits assumed): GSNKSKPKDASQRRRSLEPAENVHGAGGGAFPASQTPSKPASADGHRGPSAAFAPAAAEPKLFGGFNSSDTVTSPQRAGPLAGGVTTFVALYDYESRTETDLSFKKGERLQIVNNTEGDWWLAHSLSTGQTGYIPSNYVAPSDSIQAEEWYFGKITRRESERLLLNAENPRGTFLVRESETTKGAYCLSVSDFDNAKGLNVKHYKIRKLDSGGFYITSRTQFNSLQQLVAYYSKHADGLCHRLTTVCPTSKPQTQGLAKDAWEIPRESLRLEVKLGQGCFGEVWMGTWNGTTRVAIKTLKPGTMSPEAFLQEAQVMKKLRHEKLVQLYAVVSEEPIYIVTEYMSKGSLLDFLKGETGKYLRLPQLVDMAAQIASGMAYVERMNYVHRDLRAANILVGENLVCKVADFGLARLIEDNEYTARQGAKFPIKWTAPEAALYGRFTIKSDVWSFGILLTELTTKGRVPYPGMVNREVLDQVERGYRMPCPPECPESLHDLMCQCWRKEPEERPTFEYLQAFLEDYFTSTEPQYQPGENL
Chain of Epidermal growth factor receptor (P00533 whole entry): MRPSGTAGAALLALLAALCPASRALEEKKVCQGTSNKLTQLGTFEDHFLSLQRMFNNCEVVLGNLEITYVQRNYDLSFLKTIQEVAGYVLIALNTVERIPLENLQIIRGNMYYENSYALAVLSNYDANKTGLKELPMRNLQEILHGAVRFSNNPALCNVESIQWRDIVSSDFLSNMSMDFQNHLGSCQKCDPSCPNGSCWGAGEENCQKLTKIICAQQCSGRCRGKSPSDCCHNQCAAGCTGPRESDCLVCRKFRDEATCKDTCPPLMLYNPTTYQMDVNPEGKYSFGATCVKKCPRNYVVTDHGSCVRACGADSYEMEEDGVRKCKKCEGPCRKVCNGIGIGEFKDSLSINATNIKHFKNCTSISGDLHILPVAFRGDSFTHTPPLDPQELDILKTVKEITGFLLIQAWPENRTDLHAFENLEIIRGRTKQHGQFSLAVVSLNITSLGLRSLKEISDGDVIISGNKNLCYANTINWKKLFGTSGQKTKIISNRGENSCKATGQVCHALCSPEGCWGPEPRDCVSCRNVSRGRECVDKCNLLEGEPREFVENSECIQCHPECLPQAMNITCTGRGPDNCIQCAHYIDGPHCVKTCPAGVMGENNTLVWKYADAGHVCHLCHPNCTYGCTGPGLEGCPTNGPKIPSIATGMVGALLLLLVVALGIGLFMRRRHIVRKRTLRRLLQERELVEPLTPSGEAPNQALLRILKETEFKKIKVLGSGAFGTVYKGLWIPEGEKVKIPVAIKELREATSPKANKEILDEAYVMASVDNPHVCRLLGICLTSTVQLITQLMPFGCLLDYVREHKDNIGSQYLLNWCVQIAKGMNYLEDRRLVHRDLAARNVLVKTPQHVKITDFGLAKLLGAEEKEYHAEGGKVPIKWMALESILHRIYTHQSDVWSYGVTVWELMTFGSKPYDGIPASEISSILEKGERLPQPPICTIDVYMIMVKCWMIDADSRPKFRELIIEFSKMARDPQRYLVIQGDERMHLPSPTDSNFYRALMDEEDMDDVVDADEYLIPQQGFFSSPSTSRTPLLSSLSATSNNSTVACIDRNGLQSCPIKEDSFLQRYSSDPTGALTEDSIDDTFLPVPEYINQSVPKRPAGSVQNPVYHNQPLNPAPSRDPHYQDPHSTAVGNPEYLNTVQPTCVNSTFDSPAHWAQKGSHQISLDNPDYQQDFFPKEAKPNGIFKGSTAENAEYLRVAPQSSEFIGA

Compound: CCN1CCN(CCCOc2cc3nccc(Oc4c(F)cc(NC(=O)NN5C(=O)CSC5c5c(F)cccc5F)cc4F)c3cc2OC)CC1 (stereo not drawn)
- IC50 [1]: 240 nM
- IC50 [2]: 2100 nM
- IC50 (MDA-MB-231): 3100 nM
- Activity (HT-29 [3]): Dose-dependent effect
- Activity (HT-29 [4]): 17.4%
- Activity (HT-29 [5]): Dose-dependent effect
- IC50 [6]: 53 nM
- Activity (HT-29 [7]): 11%
- IC50 [8]: > 10000 nM
- Activity (HT-29 [9]): 9.9%
- IC50 (A549/CDDP): 630 nM
- IC50 [10]: 3800 nM
- Activity (HT-29 [11]): Active
- IC50 [12]: 520 nM
- IC50 [13]: 64 nM
- Activity (HT-29 [14]): 70.2%
- inhibition [15]: Active
- Activity (HT-29 [16]): Active
- Activity (HT-29 [17]): 10.3%
- IC50 (MCF7): 1500 nM
- Activity (HT-29 [18]): inactive
- IC50 [19]: 15 nM
- IC50 (HT-29 [20]): 73 nM
- Activity (HT-29 [21]): Dose-dependent effect
- Activity (HT-29 [22]): 55.1%
- IC50 [23]: 2.9 nM
- Activity (HT-29 [24]): 74.5%
- IC50 (A549): 350 nM
- Activity (HT-29 [25]): 63.6%
- IC50 (FHC): 1180 nM
- inhibition [26]: Active
- Activity (HT-29 [27]): Active
- Activity (HT-29 [28]): 24.3%
- IC50 [29]: > 10000 nM
- selectivity ratio [30]: 16.2
- inhibition [31]: Active
- Activity (HT-29 [32]): 9.6%
- IC50 [33]: 850 nM
